According to PubChem BioAssay (NCI):
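The compound was tested at five concentrations on cells cultured in 96-well plates, with a 48-hour exposure period. The concentration for full growth arrest is given as TGI.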

Tests used:
Assay in all cases: NCI anticancer screen, dose series, 48 h
XF 498 CNS = test system: XF 498 CNS
SF-539 CNS = test system: SF-539 CNS
UO-31 renal = test system: UO-31 renal
HCT-116 colon = test system: HCT-116 colon
M14 melanoma = test system: M14 melanoma
HCC-2998 colon = test system: HCC-2998 colon
SF-268 CNS = test system: SF-268 CNS
SK-MEL-5 melanoma = test system: SK-MEL-5 melanoma
KM20L2 colon = test system: KM20L2 colon
HT29 colon = test system: HT29 colon
UACC-62 melanoma = test system: UACC-62 melanoma
DMS 114 small cell lung = test system: DMS 114 small cell lung
786-0 renal = test system: 786-0 renal
NCI-H460 lung = test system: NCI-H460 lung
SK-OV-3 ovarian = test system: SK-OV-3 ovarian
MOLT-4 leukemia = test system: MOLT-4 leukemia
SNB-78 CNS = test system: SNB-78 CNS
SF-295 CNS = test system: SF-295 CNS
RXF 393 renal = test system: RXF 393 renal
NCI-H226 lung = test system: NCI-H226 lung
OVCAR-8 ovarian = test system: OVCAR-8 ovarian
HCT-15 colon = test system: HCT-15 colon
OVCAR-4 ovarian = test system: OVCAR-4 ovarian
A549 NSCLC = test system: A549 NSCLC
UACC-257 melanoma = test system: UACC-257 melanoma
TK-10 renal = test system: TK-10 renal
IGROV1 ovarian = test system: IGROV1 ovarian
SNB-75 CNS = test system: SNB-75 CNS
CAKI-1 renal = test system: CAKI-1 renal
SN12C renal = test system: SN12C renal
SR leukemia = test system: SR leukemia
SW-620 colon = test system: SW-620 colon
ACHN renal = test system: ACHN renal
RXF-631 renal = test system: RXF-631 renal
K-562 leukemia = test system: K-562 leukemia
EKVX NSCLC = test system: EKVX NSCLC
SNB-19 CNS = test system: SNB-19 CNS
A498 renal = test system: A498 renal
SK-MEL-2 melanoma = test system: SK-MEL-2 melanoma
M19-MEL melanoma = test system: M19-MEL melanoma
RPMI-8226 leukemia = test system: RPMI-8226 leukemia
SK-MEL-28 melanoma = test system: SK-MEL-28 melanoma
CCRF-CEM leukemia = test system: CCRF-CEM leukemia
COLO 205 colon = test system: COLO 205 colon
HL-60(TB) leukemia = test system: HL-60(TB) leukemia
KM12 colon = test system: KM12 colon
OVCAR-5 ovarian = test system: OVCAR-5 ovarian
DMS 273 small cell lung = test system: DMS 273 small cell lung
LOX IMVI melanoma = test system: LOX IMVI melanoma
LXFL 529 NSCLC = test system: LXFL 529 NSCLC
MALME-3M melanoma = test system: MALME-3M melanoma
OVCAR-3 ovarian = test system: OVCAR-3 ovarian
NCI-H23 lung = test system: NCI-H23 lung
U251 CNS = test system: U251 CNS
DLD-1 colon = test system: DLD-1 colon
NCI-H522 lung = test system: NCI-H522 lung
HOP-18 NSCLC = test system: HOP-18 NSCLC
HOP-62 NSCLC = test system: HOP-62 NSCLC
HOP-92 NSCLC = test system: HOP-92 NSCLC
PC-3 prostate = test system: PC-3 prostate
NCI/ADR-RES ovarian = test system: NCI/ADR-RES ovarian
DU-145 prostate = test system: DU-145 prostate
MDA-MB-231 breast = test system: MDA-MB-231 breast
BT-549 breast = test system: BT-549 breast
MDA-N = test system: MDA-N
MDA-MB-435 = test system: MDA-MB-435
T-47D breast = test system: T-47D breast

Compound: O=c1/c(=C/c2ccccc2[N+](=O)[O-])sc2nc3ccccc3n12
- TGI (XF 498 CNS): > 59.3 µM
- TGI (SF-539 CNS): 37.9 µM
- TGI (UO-31 renal): > 46.4 µM
- TGI (HCT-116 colon): > 46.4 µM
- TGI (M14 melanoma): > 46.4 µM
- TGI (HCC-2998 colon): > 46.4 µM
- TGI (SF-268 CNS): > 46.4 µM
- TGI (SK-MEL-5 melanoma): > 46.4 µM
- TGI (KM20L2 colon): > 100 µM
- TGI (HT29 colon): > 46.4 µM
- TGI (UACC-62 melanoma): > 100 µM
- TGI (DMS 114 small cell lung): 36.8 µM
- TGI (786-0 renal): > 46.4 µM
- TGI (NCI-H460 lung): > 46.4 µM
- TGI (SK-OV-3 ovarian): > 31.6 µM
- TGI (MOLT-4 leukemia): > 46.4 µM
- TGI (SNB-78 CNS): > 46.4 µM
- TGI (SF-295 CNS): 41.4 µM
- TGI (RXF 393 renal): 41.9 µM
- TGI (NCI-H226 lung): > 46.4 µM
- TGI (OVCAR-8 ovarian): > 46.4 µM
- TGI (HCT-15 colon): 31.6 µM
- TGI (OVCAR-4 ovarian): > 46.4 µM
- TGI (A549 NSCLC): > 46.4 µM
- TGI (UACC-257 melanoma): > 46.4 µM
- TGI (TK-10 renal): > 46.4 µM
- TGI (IGROV1 ovarian): > 46.4 µM
- TGI (SNB-75 CNS): 33.5 µM
- TGI (CAKI-1 renal): > 100 µM
- TGI (SN12C renal): > 46.4 µM
- TGI (SR leukemia): 25 µM
- TGI (SW-620 colon): 55.6 µM
- TGI (ACHN renal): > 46.4 µM
- TGI (RXF-631 renal): > 46.4 µM
- TGI (K-562 leukemia): > 46.4 µM
- TGI (EKVX NSCLC): > 100 µM
- TGI (SNB-19 CNS): > 77.9 µM
- TGI (A498 renal): > 41.6 µM
- TGI (SK-MEL-2 melanoma): > 46.4 µM
- TGI (M19-MEL melanoma): > 46.4 µM
- TGI (RPMI-8226 leukemia): 20.1 µM
- TGI (SK-MEL-28 melanoma): > 46.4 µM
- TGI (CCRF-CEM leukemia): 22.7 µM
- TGI (COLO 205 colon): > 46.4 µM
- TGI (HL-60(TB) leukemia): > 46.4 µM
- TGI (KM12 colon): > 46.4 µM
- TGI (OVCAR-5 ovarian): > 46.4 µM
- TGI (DMS 273 small cell lung): > 46.4 µM
- TGI (LOX IMVI melanoma): 31.9 µM
- TGI (LXFL 529 NSCLC): > 46.4 µM
- TGI (MALME-3M melanoma): > 46.4 µM
- TGI (OVCAR-3 ovarian): > 31.6 µM
- TGI (NCI-H23 lung): > 46.4 µM
- TGI (U251 CNS): 41.9 µM
- TGI (DLD-1 colon): 37.3 µM
- TGI (NCI-H522 lung): > 100 µM
- TGI (HOP-18 NSCLC): > 46.4 µM
- TGI (HOP-62 NSCLC): > 46.4 µM
- TGI (HOP-92 NSCLC): > 46.4 µM

Compound: CC1=CC(=O)CC2(C)CC[C@@H]3C[C@]12OC3(C)C (stereo partly drawn)
- TGI (XF 498 CNS): > 100 µM
- TGI (SF-539 CNS): > 100 µM
- TGI (UO-31 renal): > 100 µM
- TGI (HCT-116 colon): > 100 µM
- TGI (M14 melanoma): > 100 µM
- TGI (HCC-2998 colon): > 100 µM
- TGI (SF-268 CNS): > 100 µM
- TGI (SK-MEL-5 melanoma): > 100 µM
- TGI (KM20L2 colon): > 100 µM
- TGI (HT29 colon): > 100 µM
- TGI (UACC-62 melanoma): > 100 µM
- TGI (DMS 114 small cell lung): > 100 µM
- TGI (786-0 renal): > 100 µM
- TGI (NCI-H460 lung): > 100 µM
- TGI (SK-OV-3 ovarian): > 100 µM
- TGI (MOLT-4 leukemia): > 100 µM
- TGI (SNB-78 CNS): > 100 µM
- TGI (SF-295 CNS): > 100 µM
- TGI (RXF 393 renal): > 100 µM
- TGI (NCI-H226 lung): > 100 µM
- TGI (OVCAR-8 ovarian): > 100 µM
- TGI (HCT-15 colon): > 100 µM
- TGI (OVCAR-4 ovarian): > 100 µM
- TGI (A549 NSCLC): > 100 µM
- TGI (UACC-257 melanoma): > 100 µM
- TGI (TK-10 renal): > 100 µM
- TGI (IGROV1 ovarian): > 100 µM
- TGI (SNB-75 CNS): > 100 µM
- TGI (CAKI-1 renal): > 100 µM
- TGI (SN12C renal): > 100 µM
- TGI (SR leukemia): > 100 µM
- TGI (SW-620 colon): > 100 µM
- TGI (ACHN renal): > 100 µM
- TGI (K-562 leukemia): > 100 µM
- TGI (EKVX NSCLC): > 100 µM
- TGI (SNB-19 CNS): > 100 µM
- TGI (A498 renal): > 100 µM
- TGI (SK-MEL-2 melanoma): > 100 µM
- TGI (M19-MEL melanoma): > 100 µM
- TGI (RPMI-8226 leukemia): > 100 µM
- TGI (SK-MEL-28 melanoma): > 100 µM
- TGI (CCRF-CEM leukemia): > 100 µM
- TGI (COLO 205 colon): > 100 µM
- TGI (HL-60(TB) leukemia): > 100 µM
- TGI (KM12 colon): > 100 µM
- TGI (OVCAR-5 ovarian): > 100 µM
- TGI (DMS 273 small cell lung): > 100 µM
- TGI (LOX IMVI melanoma): > 100 µM
- TGI (LXFL 529 NSCLC): > 100 µM
- TGI (MALME-3M melanoma): > 100 µM
- TGI (OVCAR-3 ovarian): > 100 µM
- TGI (NCI-H23 lung): > 100 µM
- TGI (U251 CNS): > 100 µM
- TGI (DLD-1 colon): > 100 µM
- TGI (NCI-H522 lung): > 100 µM
- TGI (HOP-18 NSCLC): > 100 µM
- TGI (HOP-62 NSCLC): > 100 µM
- TGI (HOP-92 NSCLC): > 100 µM

Compound: CN(C)CCNc1ccc(CO)c2sc3ccc(O)cc3c(=O)c12
- TGI (XF 498 CNS): 19.9 µM
- TGI (SF-539 CNS): 6.9 µM
- TGI (UO-31 renal): 6.68 µM
- TGI (HCT-116 colon): 9.71 µM
- TGI (M14 melanoma): 16.5 µM
- TGI (HCC-2998 colon): 7.4 µM
- TGI (SF-268 CNS): 8.82 µM
- TGI (SK-MEL-5 melanoma): 8.37 µM
- TGI (KM20L2 colon): 22.7 µM
- TGI (HT29 colon): 9.35 µM
- TGI (UACC-62 melanoma): 7.75 µM
- TGI (PC-3 prostate): 5.92 µM
- TGI (DMS 114 small cell lung): 16.5 µM
- TGI (786-0 renal): 9.37 µM
- TGI (NCI-H460 lung): 2.87 µM
- TGI (SK-OV-3 ovarian): 8.29 µM
- TGI (MOLT-4 leukemia): > 21.7 µM
- TGI (SNB-78 CNS): > 45.6 µM
- TGI (SF-295 CNS): 12.1 µM
- TGI (RXF 393 renal): 4.44 µM
- TGI (NCI-H226 lung): 8.48 µM
- TGI (OVCAR-8 ovarian): 8.89 µM
- TGI (HCT-15 colon): 14.2 µM
- TGI (OVCAR-4 ovarian): 13.1 µM
- TGI (NCI/ADR-RES ovarian): 17.2 µM
- TGI (A549 NSCLC): 6.77 µM
- TGI (UACC-257 melanoma): 15.7 µM
- TGI (TK-10 renal): 32.1 µM
- TGI (IGROV1 ovarian): 16.4 µM
- TGI (SNB-75 CNS): 9.62 µM
- TGI (CAKI-1 renal): > 25.9 µM
- TGI (SN12C renal): 15.4 µM
- TGI (SR leukemia): 0.78 µM
- TGI (SW-620 colon): 10.5 µM
- TGI (ACHN renal): 6.75 µM
- TGI (K-562 leukemia): > 20.9 µM
- TGI (EKVX NSCLC): 19.1 µM
- TGI (SNB-19 CNS): 11.9 µM
- TGI (DU-145 prostate): 4.05 µM
- TGI (A498 renal): 20.4 µM
- TGI (SK-MEL-2 melanoma): 11.6 µM
- TGI (M19-MEL melanoma): 15.9 µM
- TGI (RPMI-8226 leukemia): 12.8 µM
- TGI (SK-MEL-28 melanoma): 19.1 µM
- TGI (CCRF-CEM leukemia): 21.3 µM
- TGI (COLO 205 colon): 16.8 µM
- TGI (HL-60(TB) leukemia): 6.13 µM
- TGI (KM12 colon): 7.3 µM
- TGI (OVCAR-5 ovarian): 14.6 µM
- TGI (DMS 273 small cell lung): 9.97 µM
- TGI (MDA-MB-231 breast): 4.24 µM
- TGI (LOX IMVI melanoma): 6.75 µM
- TGI (LXFL 529 NSCLC): 19 µM
- TGI (MALME-3M melanoma): 9.81 µM
- TGI (OVCAR-3 ovarian): 23.5 µM
- TGI (BT-549 breast): 8.93 µM
- TGI (NCI-H23 lung): 4.14 µM
- TGI (U251 CNS): 7.46 µM
- TGI (MDA-N): 3.7 µM
- TGI (DLD-1 colon): 18.6 µM
- TGI (NCI-H522 lung): 3.49 µM
- TGI (MDA-MB-435): 4.34 µM
- TGI (HOP-18 NSCLC): 29.6 µM
- TGI (HOP-62 NSCLC): 4.23 µM
- TGI (T-47D breast): 7.68 µM
- TGI (HOP-92 NSCLC): 7.35 µM
